In EPA's ToxValDB 9.5 (doi:10.2903/j.efsa.2014.3815):

Tests used:
[1] = test system: Anas platyrhynchos
[2] = test system: Macromiidae; details: acute; duration: 72 hours; biomass
[3] = test system: Lepomis macrochirus; details: acute; duration: 96 hours; mortality
[4] = test system: Canidae; details: subchronic; duration: 90 days; oral; Dog Other; histopathology: nonneoplastic
[5] = test system: Tagia sp.; details: acute; duration: 14 days; mortality
[6] = test system: Pleurozium sp.; details: chronic/long-term; duration: 120 hours; growth
[7] = test system: Oryctolagus sp.; details: developmental; development
[8] = test system: Landoltia sp.; details: acute; duration: 14 days; frond number
[9] = test system: Cyprinus carpio; details: acute; duration: 96 hours; mortality
[10] = test system: Oncorhynchus mykiss
[11] = test system: Daphnia magna; details: chronic/long-term; duration: 21 days; reproduction
[12] = test system: Rattus norvegicus; details: for LD50: acute, mortality
[13] = test system: Pimephales promelas; details: chronic/long-term; duration: 37 days; growth
[14] = test system: Apis mellifera; details: acute; duration: 48 hours; dermal; mortality
[15] = test system: Poecilus cupreus; test: LR50; higher = less toxic; details: acute; mortality

SMILES: COc1nc(C)nc(NC(=O)NS(=O)(=O)c2ccccc2CCC(F)(F)F)n1 [Prosulfuron]
- LD50 ([1]; acute, oral, unspecified, mortality): 1300 mg/kg
- NOEL ([1]; reproductive): 2.95 mg/kg-day
- NOEC [2]: 0.831 mg/L
- LC50 [3]: > 100 µg/mL
- NOAEL [4]: 6 mg/kg-day
- LC50 [5]: > 1000 mg/kg
- NOEC [6]: 0.00278 mg/L
- NOAEL [7]: 10 mg/kg-day
- NOEC [8]: 0.000827 mg/L
- LC50 [9]: > 100 µg/mL
- LC50 ([10]; acute, duration: 96 hours, mortality): > 160 µg/mL
- NOEC ([10]; chronic/long-term, duration: 21 days, growth): 5.8 mg/L
- NOEC [11]: 148 mg/L
- LD50 ([12]; M/F): 986 mg/kg
- LD50 [12]: > 755 mg/kg
- NOAEL ([12]; chronic): 12 mg/kg-day
- NOAEL ([12]; chronic, duration: 18 months, histopathology: nonneoplastic): 1.7 mg/kg-day
- NOAEL ([12]; subchronic, duration: 90 days): 3 mg/kg-day
- NOEC [13]: 150 mg/L
- LD50 [14]: > 100 µg/piece
- LR50 [15]: > 15 g/ha
